Tests used:
Ube3A = assay: Western blot of Ube3A protein in cultured primary hippocampal neurons; format: cell-based, rat
Experimental: (§1) Hippocampal neuron cultures from both male and female rat embryos (E17-18) were prepared following a slightly modified version of the method of Brewer et al. 1996. Hippocampal neurons were kept in culture at 37° C. with 5% CO2 in Neurobasal medium (ThermoFisher) with B27 (ThermoFisher) supplement and Glutamax (ThermoFisher) and plated at a density of 2.5×10^5 cell/ml on dishes coated with poly-D-lysine (ThermoFisher). For the experiments, neurons were used after 14-21 days in vitro (DIV). Rat neuroblastoma B35 cells were cultured and maintained in DMEM (ThermoFisher) supplemented with 10% fetal bovine serum (FBS; Invitrogen) and Glutamax (ThermoFisher).
(§2) Whole frozen mouse hippocampi, human brain specimens, and cultured cells were homogenized in RIPA buffer (ThermoFisher) supplemented with protease and phosphatase inhibitor cocktail (ThermoFisher), using a Teflon dounce homogenizer and centrifuged at 14,000 rpm for 10 minutes at 4° C. Supernatants were collected, normalized by BCA assay (ThermoFisher), and prepared for loading using sample buffer (SB) 4× (ThermoFisher) and dithiothreitol (DTT) 10× (ThermoFisher).
(§3) Cultured primary hippocampal neurons (14 DIV) were treated with 300 nM of a topoisomerase type I inhibitor, topotecan (TOP) or a vehicle control as described in Huang et al. 2012. Some cells were treated for 24 hours and some for 72 hours. All cells were harvested and whole cell lysates prepared for Western blot analysis of Ube3A and Ephixin-5.

Ephexin-5 = assay: Western blot of Ephexin-5 in cultured primary hippocampal neurons; format: cell-based, rat
Experimental: as §1, §2, §3

RhoA-GTP = assay: Rho-GTPase activity pull-down assay in hippocampal neurons; format: cell-based, rat
Experimental: Rho-GTPase pull-down assays were performed following the manufacturer's protocol (Cytoskeleton, Inc.). Briefly, cells were washed once with ice-cold PBS and lysed with RIPA/M-PER buffer (1:1; ThermoFisher). Lysates were incubated on ice for 5 minutes, and centrifuged (12,000 g) for 5 minutes. 30 μl was used for input and the remaining lysates were incubated with Rhotekin-RBD (RhoA) or PAK-RBD (Rac1) protein beads (25 μl) by rotating for 1 hour at 4° C. Beads were washed with ice-cold PBS (500 μl, 3×) and collected, and bound proteins were eluted with 1× sample buffer (30 μl). Input and eluted samples were then analyzed by gel electrophoresis and Western blotting using either a RhoA or Rac1-specific antibody.
To test whether increasing Ube3A could rescue the effects of oAβ, cultured primary hippocampal neurons (14 DIV) were pretreated with 300 nM of TOP or control PBS. At day 3 the cells were treated with oligomeric Aβ for 6 hours and whole cell lysates prepared for Western blot analysis of Ube3A protein levels and levels of active GTPase levels including RhoA-GTP, Rac1-GTP and Cdc42-GTP.

[1] = tested on: primary hippocampal neurons; assay: Dendritic spine density in cultured hippocampal neurons (DiOlistic labeling); format: cell-based, rat; conditions: oAβ for 24 hours
Experimental: The protocol for diolistic labeling of neurons was adapted from Gan et al. 2000 and Gan et al. 2009. Briefly, 100 mg of tungsten particles (1.1 μm diameter; Bio-Rad) were thoroughly precipitated with 5.0 mg of lipophilic dye (DiI; ThermoFisher) and dissolved in 100 μl of methylene chloride. Dye-coated particles were shot 2-3 times into the cells using the Helios gene gun system (Bio-Rad) and left in 0.1 M PBS overnight to allow dye diffusion along neuronal processes. Cells were post-fixed with 4% paraformaldehyde (Pierce) for 1 hour to preserve staining, then mounted onto glass slides using Gel Mount (Biomeda) and stored at 4° C. in the dark.
Labeled neurons were imaged using the Laser Scanning Microscope (LSM) 510 Meta confocal microscope (Zeiss), equipped with 40×1.3 NA and 100×1.4 NA oil-immersion objectives. The NIH Image software program ImageJ was used the quantify diolistic-labeled cultured neurons. An average of 12 compressed images (20 μm thick) consisting of pyramidal neurons were quantified for each treatment. Spines were counted with NeuronStudio software in a blinded manner and spine density was represented in number of spine per μm dendritic length. Statistical analysis was performed using the statistics package GraphPad Prism.
To further test whether increasing Ube3A could rescue the effects of oAβ, cultured primary hippocampal neurons (14 DIV) were pretreated with 300 nM of TOP or control PBS. The neurons were then treated with oAβ for 24 hours, and whole cell lysates prepared for Western blot analysis, or fixed for microscopy.

wild-type mice = assay: Morris water maze in wild-type mice; format: in vivo; conditions: single TOP injection 275 μg, vs PBS-injected mice
Experimental: Mice were trained to find a hidden platform in a circular pool of 1.10 m diameter located in a room with extra maze cues. The location of the platform ([…] diameter) was constant for each mouse during training and was placed 1 cm beneath the surface of the water, maintained at 24° C.±2° C. throughout the duration of the test. At the end of test, the mice were dried off and placed in a clean cage with extra paper towels to prevent hypothermia Animals were then monitored inside their cage until eating, drinking, and ambulating normally Mice were trained in sessions consisting of four trials a day for five consecutive days. Mice started from different quadrants on a random basis during each trial and all four quadrants were used on any given day. The maximum swimming time allowed on each trial was 60 seconds.
Probe trials (1 session: 1 trials/session) were conducted 24 hours after the last training trial. During the probe test the platform was removed and mice were free to swim in the pool for 60 seconds. Time spent in each quadrant was measured. Trial and probe test sessions were recorded and analyzed with a video tracking system (Noldus). After the probe, mice were tested in the visible test for two consecutive days, 2 sessions/day with 3 trials/session to assess whether the mice were able to locate a visible platform (its location varied between the three trials of the same session). […]

phospho-tau = assay: Western blot of phospho-tau in J20 mice; format: in vivo; conditions: TOP treated J20 mice vs control J20
Text: All chemicals used were of the highest grade available. Antibodies used include the following: rabbit anti-Ube3A (Cell Signaling), mouse anti-RhoA (Santa Cruz), rabbit anti-Arc (Santa Cruz), mouse anti-GluR1 (Millipore), rabbit anti-Ephexin-5 (Pierce and Abcam), rabbit anti-phospho-c-Abl (Cell Signaling), rabbit anti-GAPDH (Cell Signaling), rabbit anti-HA (Cell Signaling), anti-PSD95 (Cell Signaling), rabbit anti-NMDAR1 (Millipore), and anti-phospho-tau PHF13 (Cell Signaling).
as §2

Arc = assay: Western blot of Arc in hippocampal neurons; format: cell-based, rat; conditions: Aβ for 8-10 hours
Experimental: as §2
As observed in the Tg2576 mice hippocampi, the levels of Ube3A inversely correlated with the levels of Arc and Ephexin-5. To determine whether this correlation was also observed in hippocampal neurons, the cells were treated with Aβ for 8-10 hours, and whole cell lysates were collected for Western blot analysis.

[2] = neurons pretreated with 300 nM TOP, oligomeric Aβ for 6 hours at day 3
[3] = neurons 21 DIV, oAβ for 24 hours

Molecule	Ube3A protein levels (Ube3A; neurons 14 DIV, 300 nM TOP, 24 or 72 hours, vs vehicle)	Ube3A protein levels (Ube3A; [2])	Ephexin-5 level (Ephexin-5; neurons 14 DIV, 300 nM TOP, vs vehicle)	RhoA activity (RhoA-GTP; [2])	protection against oAβ-induced loss of dendritic spine density ([1]; neurons pretreated with 300 nM TOP)	memory (Morris Water Maze) (wild-type mice)	phospho-tau levels (phospho-tau)	levels of Ube3A protein (Ube3A; [3])	levels of Ephexin-5 protein (Ephexin-5; hippocampal neurons, Aβ for 8-10 hours)	levels of active RhoA-GTP (RhoA-GTP; [3])	dendritic spine density ([1]; neurons 21 DIV)	levels of Arc protein (Arc)
CC[C@@]1(O)C(=O)OCc2c1cc1n(c2=O)Cc2cc3c(CN(C)C)c(O)ccc3nc2-1 [TOP, topotecan]	increased as early as 24 hours and persisted up to three days	increased	significant decrease	decreased	complete protection	significant enhancement	decreased	–	–	–	–	–
oAβ: synthetic soluble oligomeric Aβ1-42	–	–	–	–	–	–	–	significant decrease	significant increase	significant increase	significant decrease	significant increase

Source: patent US20200138921A1, “METHODS OF PREVENTING AND TREATING DISEASES CHARACTERIZED BY SYNAPTIC DYSFUNCTION AND NEURODEGENERATION INCLUDING ALZHEIMER'S DISEASE” (The Trustees of Columbia University in the City of New York, priority 2017, published 2020)
